#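 Each compound was tested at five concentrations against cells in 96-well plates for 48 hours. The concentration for full growth arrest is given as TGI.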
# Experiments:
# Assay in all cases: DTP human tumour cell line panel, 48 h
# 786-0 renal = tested on: 786-0 renal
# A498 renal = tested on: A498 renal
# A549 NSCLC = tested on: A549 NSCLC
# ACHN renal = tested on: ACHN renal
# BT-549 breast = tested on: BT-549 breast
# CAKI-1 renal = tested on: CAKI-1 renal
# CCRF-CEM leukemia = tested on: CCRF-CEM leukemia
# COLO 205 colon = tested on: COLO 205 colon
# DU-145 prostate = tested on: DU-145 prostate
# EKVX NSCLC = tested on: EKVX NSCLC
# HCC-2998 colon = tested on: HCC-2998 colon
# HCT-116 colon = tested on: HCT-116 colon
# HCT-15 colon = tested on: HCT-15 colon
# HL-60(TB) leukemia = tested on: HL-60(TB) leukemia
# HOP-62 NSCLC = tested on: HOP-62 NSCLC
# HOP-92 NSCLC = tested on: HOP-92 NSCLC
# HS 578T breast = tested on: HS 578T breast
# HT29 colon = tested on: HT29 colon
# IGROV1 ovarian = tested on: IGROV1 ovarian
# K-562 leukemia = tested on: K-562 leukemia
# KM12 colon = tested on: KM12 colon
# LOX IMVI melanoma = tested on: LOX IMVI melanoma
# M14 melanoma = tested on: M14 melanoma
# MALME-3M melanoma = tested on: MALME-3M melanoma
# MCF7 breast = tested on: MCF7 breast
# MDA-MB-231 breast = tested on: MDA-MB-231 breast
# MDA-MB-435 = tested on: MDA-MB-435
# MOLT-4 leukemia = tested on: MOLT-4 leukemia
# NCI-H226 lung = tested on: NCI-H226 lung
# NCI-H23 lung = tested on: NCI-H23 lung
# NCI-H460 lung = tested on: NCI-H460 lung
# NCI-H522 lung = tested on: NCI-H522 lung
# NCI/ADR-RES ovarian = tested on: NCI/ADR-RES ovarian
# OVCAR-3 ovarian = tested on: OVCAR-3 ovarian
# OVCAR-4 ovarian = tested on: OVCAR-4 ovarian
# OVCAR-5 ovarian = tested on: OVCAR-5 ovarian
# OVCAR-8 ovarian = tested on: OVCAR-8 ovarian
# PC-3 prostate = tested on: PC-3 prostate
# RPMI-8226 leukemia = tested on: RPMI-8226 leukemia
# RXF 393 renal = tested on: RXF 393 renal
# SF-268 CNS = tested on: SF-268 CNS
# SF-295 CNS = tested on: SF-295 CNS
# SF-539 CNS = tested on: SF-539 CNS
# SK-MEL-2 melanoma = tested on: SK-MEL-2 melanoma
# SK-MEL-28 melanoma = tested on: SK-MEL-28 melanoma
# SK-MEL-5 melanoma = tested on: SK-MEL-5 melanoma
# SK-OV-3 ovarian = tested on: SK-OV-3 ovarian
# SN12C renal = tested on: SN12C renal
# SNB-19 CNS = tested on: SNB-19 CNS
# SNB-75 CNS = tested on: SNB-75 CNS
# SR leukemia = tested on: SR leukemia
# SW-620 colon = tested on: SW-620 colon
# T-47D breast = tested on: T-47D breast
# TK-10 renal = tested on: TK-10 renal
# U251 CNS = tested on: U251 CNS
# UACC-257 melanoma = tested on: UACC-257 melanoma
# UACC-62 melanoma = tested on: UACC-62 melanoma
# UO-31 renal = tested on: UO-31 renal
compound,measurement,setting,value
c1ccc(CSc2nc(N3CCCCC3)c3cn[nH]c3n2)cc1,TGI,786-0 renal,79.8 µM
same,TGI,A498 renal,34.3 µM
same,TGI,A549 NSCLC,> 100 µM
same,TGI,ACHN renal,94.7 µM
same,TGI,BT-549 breast,34.6 µM
same,TGI,CAKI-1 renal,> 100 µM
same,TGI,CCRF-CEM leukemia,> 100 µM
same,TGI,COLO 205 colon,62.4 µM
same,TGI,DU-145 prostate,> 100 µM
same,TGI,EKVX NSCLC,65.3 µM
same,TGI,HCC-2998 colon,45 µM
same,TGI,HCT-116 colon,44.1 µM
same,TGI,HCT-15 colon,> 100 µM
same,TGI,HL-60(TB) leukemia,> 100 µM
same,TGI,HOP-62 NSCLC,43.3 µM
same,TGI,HOP-92 NSCLC,72.8 µM
same,TGI,HS 578T breast,43.9 µM
same,TGI,HT29 colon,> 100 µM
same,TGI,IGROV1 ovarian,41.8 µM
same,TGI,K-562 leukemia,> 100 µM
same,TGI,KM12 colon,35.4 µM
same,TGI,LOX IMVI melanoma,49.1 µM
same,TGI,M14 melanoma,37 µM
same,TGI,MALME-3M melanoma,37.3 µM
same,TGI,MCF7 breast,72.4 µM
same,TGI,MDA-MB-231 breast,36.8 µM
same,TGI,MDA-MB-435,47.9 µM
same,TGI,MOLT-4 leukemia,> 100 µM
same,TGI,NCI-H226 lung,44.9 µM
same,TGI,NCI-H23 lung,66.5 µM
same,TGI,NCI-H460 lung,64.5 µM
same,TGI,NCI-H522 lung,36.4 µM
same,TGI,NCI/ADR-RES ovarian,> 100 µM
same,TGI,OVCAR-3 ovarian,69.1 µM
same,TGI,OVCAR-4 ovarian,> 100 µM
same,TGI,OVCAR-5 ovarian,> 100 µM
same,TGI,OVCAR-8 ovarian,74.3 µM
same,TGI,PC-3 prostate,51 µM
same,TGI,RPMI-8226 leukemia,72.8 µM
same,TGI,RXF 393 renal,35.4 µM
same,TGI,SF-268 CNS,61.3 µM
same,TGI,SF-295 CNS,63.7 µM
same,TGI,SF-539 CNS,34.9 µM
same,TGI,SK-MEL-2 melanoma,32.5 µM
same,TGI,SK-MEL-28 melanoma,41.3 µM
same,TGI,SK-MEL-5 melanoma,31 µM
same,TGI,SK-OV-3 ovarian,> 100 µM
same,TGI,SN12C renal,42 µM
same,TGI,SNB-19 CNS,79 µM
same,TGI,SNB-75 CNS,46.8 µM
same,TGI,SR leukemia,> 100 µM
same,TGI,SW-620 colon,44.5 µM
same,TGI,T-47D breast,> 100 µM
same,TGI,TK-10 renal,70.2 µM
same,TGI,U251 CNS,40.7 µM
same,TGI,UACC-257 melanoma,35.4 µM
same,TGI,UACC-62 melanoma,32 µM
same,TGI,UO-31 renal,42.8 µM
